From patent US11053219B2, “Substituted pyridines as TYK2 inhibitors” (FronThera U.S. Pharmaceuticals LLC, priority 2018, dated 2021)

biological target: TYK2 (JH2 domain) (Homo sapiens (Human), UniProt P29597); experiment: TYK2 JH2 domain binding assay (DiscoverX KINOMEscan); settings: 11-point 3-fold dilution, duplicate
Sequence (P29597 589-875): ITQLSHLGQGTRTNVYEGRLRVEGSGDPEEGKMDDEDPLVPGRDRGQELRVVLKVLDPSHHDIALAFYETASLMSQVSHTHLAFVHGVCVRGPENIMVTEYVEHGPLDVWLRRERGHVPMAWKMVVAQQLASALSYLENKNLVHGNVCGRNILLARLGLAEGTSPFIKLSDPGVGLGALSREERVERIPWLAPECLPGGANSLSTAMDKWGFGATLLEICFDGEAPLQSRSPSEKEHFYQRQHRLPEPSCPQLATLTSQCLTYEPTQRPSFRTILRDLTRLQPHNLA

Kd [nM]	SMILES
≤ 1	[2H]C([2H])([2H])NC(=O)c1nnc(N2CCC3(CCNCC3)C2=O)cc1Nc1cccc(-c2ncn(C)n2)c1OC [Example 75]
1 to 5	[2H]C([2H])([2H])NC(=O)c1nnc(N2CCCC2)cc1Nc1cccc(-c2ncn(C)n2)c1OC [Example 70]
≤ 1	[2H]C([2H])([2H])NC(=O)c1nnc(N2CCN(C(C)C(F)(F)F)C2=O)cc1Nc1cccc(-c2ncn(C)n2)c1OC (centres unmarked) [Example 83]
≤ 1	[2H]C([2H])([2H])NC(=O)c1nnc(N2CCN(C(CO)C(C)C)C2=O)cc1Nc1cccc(-c2ncn(C)n2)c1OC (centres unmarked) [Example 92]
5 to 10	Cn1cnc(-c2cccc3c2OCCOCCOc2nnccc2N3)n1 [Example 104]
5 to 10	[2H]C([2H])([2H])NC(=O)c1nnc(-n2cccn2)cc1Nc1cccc(-c2ncn(C)n2)c1OC [Example 65]
1 to 5	[2H]C([2H])([2H])NC(=O)c1nnc(-n2ccc(C)n2)cc1Nc1cccc(-c2ncn(C)n2)c1OC [Example 66]
5 to 10	[2H]C([2H])([2H])NC(=O)c1nnc(N2CC(F)(F)C2)cc1Nc1cccc(-c2ncn(C)n2)c1OC [Example 58]
1 to 5	[2H]C([2H])([2H])NC(=O)c1nnc(N2C[C@H](O)CC2=O)cc1Nc1cccc(-c2ncn(C)n2)c1OC [Example 76]
≤ 1	[2H]C([2H])([2H])NC(=O)c1nnc(N2CCN(CCN(CC)CC)C2=O)cc1Nc1cccc(-c2ncn(C)n2)c1OC [Example 93]
≤ 1	[2H]C([2H])([2H])NC(=O)c1nnc(N2CCN(C(CC)CC)C2=O)cc1Nc1cccc(-c2ncn(C)n2)c1OC [Example 102]
5 to 10	[2H]C([2H])([2H])NC(=O)c1nnc(C=C(C)C)cc1Nc1cccc(-c2ncn(C)n2)c1OC [Example 73]
≤ 1	[2H]C([2H])([2H])NC(=O)c1nnc(N2CCN(C3CC(C)(C)C3)C2=O)cc1Nc1cccc(-c2ncn(C)n2)c1OC [Example 101]
≤ 1	[2H]C([2H])([2H])NC(=O)c1nnc(N2CCN(C(C)COC)C2=O)cc1Nc1cccc(-c2ncn(C)n2)c1OC (centres unmarked) [Example 97]
≤ 1	[2H]C([2H])([2H])NC(=O)c1nnc(N2CCN(C3CCC3O)C2=O)cc1Nc1cccc(-c2ncn(C)n2)c1OC (centres unmarked) [Example 81]
≤ 1	[2H]C([2H])([2H])NC(=O)c1nnc(N2CC3(COC3)C2)cc1Nc1cccc(-c2ncn(C)n2)c1OC [Example 53]
≤ 1	COc1c(Nc2cc(Cl)nnc2C(=O)C(F)F)cccc1-c1ncn(C)n1 [Example 46]
≤ 1	[2H]C([2H])([2H])NC(=O)c1nnc(N2CCN(CC(C)(C)O)C2=O)cc1Nc1cccc(-c2ncn(C)n2)c1OC [Example 90]
≤ 1	[2H]C([2H])([2H])NC(=O)c1nnc(/C=C/C2CC2)cc1Nc1cccc(-c2ncn(C)n2)c1OC [Example 45]

SMILES	Kd [nM]
COc1c(Nc2cc(N3CCN(C(C)C)C3=O)ncc2C(=O)C2CC2)cccc1-c1ncn(C)n1 [Example 35]	≤ 1
COc1c(Nc2cc(N[S@+]([O-])C(C)(C)C)ncc2C(=O)C2CC2)cccc1-c1ncn(C)n1 [Example 118]	> 10
COc1c(Nc2cc(N[S@@+]([O-])C(C)(C)C)ncc2C(=O)C2CC2)cccc1-c1ncn(C)n1 [Example 123]	> 10

tested on: INFα induced pSTAT5 in human PBMC; experiment: INFα induced pSTAT5 in human PBMC; assay type: cell-based; settings: Homo sapiens, PBMC, read-out: p-STAT5 IC50

SMILES	IC50 [nM]
COc1c(Nc2cc(N[S+]([O-])C(C)(C)C)ncc2C(=O)C2CC2)cccc1-c1ncn(C)n1 (centres unmarked) [Example 128]	1000 to 10000

same assay, conditions: human PBMC, INFα 5000 units/ml; read-out: p-STAT5 IC50

SMILES	IC50 [nM]
COc1c(Nc2cc(Nc3cccnn3)ncc2C(=O)C2CC2)cccc1-c1ncn(C)n1 [Example 109]	< 100
[2H]C([2H])([2H])NC(=O)c1nnc(NC(=O)N2CC(C)(O)C2)cc1Nc1cccc(-c2ncn(C)n2)c1OC [Example 165]	100 to 1000
COc1c(Nc2cc(Nc3nc(C)c[nH]3)ncc2C(=O)C2CC2)cccc1-c1ncn(C)n1 [Example 196]	100 to 1000
COc1c(Nc2cc(Nc3ccc(OC4CCOC4)cn3)ncc2C(=O)C2CC2)cccc1-c1ncn(C)n1 (centres unmarked) [Example 124]	< 100
[2H]C([2H])([2H])NC(=O)c1nnc(NC(=O)N2CC(CO)C2)cc1Nc1cccc(-c2ncn(C)n2)c1OC [Example 169]	< 100
CCC(=O)c1cnc(Nc2cccc(C#N)n2)cc1Nc1nccc(-c2ncn(C)n2)c1OC [Example 175]	< 100
COc1c(-c2ncn(C)n2)ccnc1Nc1cc(Nc2ccc(C(C)(C)O)c(F)n2)ncc1C(=O)C1CC1 [Example 131]	< 100
[2H]C([2H])([2H])NC(=O)c1cnc(NC(=O)N2CC(C)(C)C2)cc1Nc1cccc(-c2ncn(C)n2)c1OC [Example 148]	< 100
COc1c(Nc2cc(Nc3cc(C)ncn3)ncc2C(=O)C2CC2)cccc1-c1ncn(C)n1 [Example 154]	< 100
COc1c(-c2ncn(C)n2)ccnc1Nc1cc(Nc2ccccn2)ncc1C(=O)C1CC1 [Example 141]	< 100
COc1c(Nc2cc(Nc3cccc(C)n3)ncc2C(=O)C2CC2)cccc1-c1ncn(C)n1 [Example 112]	< 100
[2H]C([2H])([2H])CC(=O)c1cnc(Nc2ccc(C)nn2)cc1Nc1ncccc1S(C)(=O)=O [Example 190]	< 100
COc1c(Nc2cc(Nc3cccc(C#N)n3)ncc2C(=O)C2CC2)cccc1-c1ncn(C)n1 [Example 140]	< 100
CS(=O)(=O)c1cccnc1Nc1cc(Nc2cccnn2)ncc1C(=O)C1CC1 [Example 125]	< 100
[2H]C([2H])([2H])NC(=O)c1nnc(NC(=O)N2CCC2C)cc1Nc1cccc(-c2ncn(C)n2)c1OC (centres unmarked) [Example 164, 4-((2-methoxy-3-(1-methyl-1H-1,2,4-triazol-3-yl)phenyl)amino)-N-(methyl-d3)-6-(2-methylazetidine-1-carboxamido)pyridazine-3-carboxamide]	< 100
COc1c(Nc2cc(Nc3cc(C)n(C)n3)ncc2C(=O)C2CC2)cccc1-c1ncn(C)n1 [Example 132]	< 100
[2H]C([2H])([2H])NC(=O)c1nnc(NC(=O)N2CC(C)(C)C2)cc1Nc1cccc(-c2ncn(C([2H])([2H])[2H])n2)c1OC [Example 156]	< 100
[2H]C([2H])([2H])n1cnc(-c2cccc(Nc3cc(NC(=O)C4CC4)ncc3C(=O)CC)c2OC)n1 [Example 189]	< 100
CCC(=O)c1cnc(Nc2ccc(C(C)(C)O)c(F)n2)cc1Nc1ncccc1S(C)(=O)=O [Example 174]	< 100
COc1c(Nc2cc(NC(=O)[C@@H]3C[C@@H]3F)ncc2C(=O)C2CC2)cccc1-c1ncn(C)n1 [Example 161]	< 100
COc1c(Nc2cc(Nc3cc(C)ccn3)ncc2C(=O)C2CC2)cccc1-c1ncn(C)n1 [Example 107]	< 100
CCC(=O)c1cnc(Nc2cccc(C#N)n2)cc1Nc1ncccc1S(C)(=O)=O [Example 176]	< 100
COc1c(Nc2cc(NC(=O)NC(C)C)ncc2C(=O)C2CC2)cccc1-c1ncn(C)n1 [Example 121]	< 100
CCC(=O)c1cnc(NC(=O)C2CC2)cc1Nc1cccc(-c2ncn(C)n2)c1OC [Example 116]	< 100
COc1c(Nc2cc(Nc3ccnc(C#N)n3)ncc2C(=O)C2CC2)cccc1-c1ncn(C)n1 [Example 143]	< 100
[2H]C([2H])([2H])CC(=O)c1cnc(Nc2ccc(C(C)(C)O)c(F)n2)cc1Nc1nccc(-c2ncn(C)n2)c1OC [Example 185]	< 100
COc1c(Nc2cc(NC(=O)N3CC(C)(C)C3)ncc2C(=O)C2CC2)cccc1-c1ncn(C)n1 [Example 133]	< 100
